In patent US20250214969A1, “PROTEIN DEGRADERS AND USES THEREOF” (Kymera Therapeutics, Inc., priority 2022, published 2025):

Key:
[1] = target: T1, truncated His-MBP-Tev-KLHDC2 (residues 1-363) (Homo sapiens, UniProt Q9Y2U9); experiment: KLHDC2 HTRF binding assay; conditions: 1 nM KLHDC2 (residues 1-363), fluorescein-labeled diglycine peptide probe
T1 construct: truncated His -MBP-Tev-KLHDC2 (residues 1-363) purified from E. coli; made in house; host or cells: E. coli
T1 sequence (Q9Y2U9 1-363): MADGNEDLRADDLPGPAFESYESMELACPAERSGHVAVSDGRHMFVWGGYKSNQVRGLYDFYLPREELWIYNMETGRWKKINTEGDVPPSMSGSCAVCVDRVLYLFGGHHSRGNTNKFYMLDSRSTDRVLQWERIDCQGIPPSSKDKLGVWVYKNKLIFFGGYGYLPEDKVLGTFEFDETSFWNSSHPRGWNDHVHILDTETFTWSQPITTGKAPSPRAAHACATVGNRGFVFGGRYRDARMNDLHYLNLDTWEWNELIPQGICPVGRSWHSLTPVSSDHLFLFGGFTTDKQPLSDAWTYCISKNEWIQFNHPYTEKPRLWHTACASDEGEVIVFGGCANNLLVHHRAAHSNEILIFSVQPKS

[2] = target: T1, truncated His-MBP-Tev-KLHDC2 (residues 1-363); experiment: KLHDC2 FP competition binding assay; conditions: 15 nM KLHDC2 (residues 1-363), 10 nM fluorescein-labeled diglycine peptide probe, read-out: KLHDC2 binding Human FP: average external IC50

SMILES	IC50 [1]	IC50 [2]
O=C(O)Cn1cc(N2CC[C@]3(CCN(c4cccnc4)C3)C2=O)ccc1=O [I-1]	> 5000 nM	> 5000 nM
O=C(O)Cn1cc(N2CC[C@@]3(CCN(c4cccnc4)C3)C2=O)ccc1=O [I-2]	500 to 5000 nM	> 5000 nM
O=C(O)Cn1cc(NC(=O)[C@H]2CCCN(c3cncc([N+](=O)[O-])c3)C2)ccc1=O [I-4]	< 50 nM	< 50 nM
COc1cccc2c(N3CCC[C@H](C(=O)Nc4ccc(Cl)c(CC(=O)O)c4)C3)cncc12 [I-5]	50 to 500 nM	50 to 500 nM
COc1cccc2c(N3CCC[C@H](C(=O)Nc4ccc(F)c(CC(=O)O)c4)C3)cncc12 [I-6]	< 50 nM	50 to 500 nM
O=C(O)Cc1cc(NC(=O)[C@H]2CCCN(c3cncc4ccccc34)C2)ccc1Cl [I-7]	< 50 nM	50 to 500 nM
COc1cccc2c(N3CCC[C@H](C(=O)Nc4ccc(=O)n(CC(=O)O)c4)C3)cncc12 [I-9]	< 50 nM	< 50 nM
O=C(O)Cn1cc(NC(=O)c2cccc(-c3cccnc3)c2C(F)(F)F)ccc1=O [I-10]	500 to 5000 nM	> 5000 nM
O=C(O)Cn1cc(NC(=O)[C@@H]2Cc3ccccc3N(c3cccnc3)C2)ccc1=O [I-11]	500 to 5000 nM	500 to 5000 nM
O=C(O)Cn1cc(NC(=O)[C@H]2Cc3ccccc3N(c3cccnc3)C2)ccc1=O [I-12]	> 5000 nM	> 5000 nM
COc1cncc(-c2cccc(C(=O)Nc3ccc4c(c3)CC(=O)O4)c2)c1 [I-13]	> 5000 nM	> 5000 nM
O=C(O)Cn1cc(N2CC[C@@]3(CCCN(c4cccnc4)C3)C2=O)ccc1=O [I-14]	> 5000 nM	> 5000 nM
O=C(O)Cn1cc(N2CC[C@]3(CCCN(c4cccnc4)C3)C2=O)ccc1=O [I-15]	50 to 500 nM	> 5000 nM
O=C(O)Cn1cc(N2C[C@]3(CCCN(c4cccnc4)C3)CC2=O)ccc1=O [I-16]	> 5000 nM	> 5000 nM
O=C(O)Cn1cc(N2C[C@@]3(CCCN(c4cccnc4)C3)CC2=O)ccc1=O [I-17]	> 5000 nM	> 5000 nM

Next, values leading:

IC50 [1]	IC50 [2]	SMILES
50 to 500 nM	500 to 5000 nM	CNc1cncc(N2CCC[C@H](C(=O)Nc3ccc(Cl)c(CC(=O)O)c3)C2)c1 [I-18]
50 to 500 nM	500 to 5000 nM	CNc1cncc(N2CCC[C@H](C(=O)Nc3ccc(F)c(CC(=O)O)c3)C2)c1 [I-19]
50 to 500 nM	500 to 5000 nM	COc1cncc(N2CCC[C@H](C(=O)Nc3ccc(Cl)c(CC(=O)O)c3)C2)c1 [I-20]
50 to 500 nM	500 to 5000 nM	CCc1cncc(N2CCC[C@H](C(=O)Nc3ccc(Cl)c(CC(=O)O)c3)C2)c1 [I-21]
> 5000 nM	> 5000 nM	COc1cncc(-c2cccc(C(=O)Nc3ccc(O)c(CC(=O)O)c3)c2)c1 [I-22]
< 50 nM	50 to 500 nM	CCc1cncc(N2CCC[C@H](C(=O)Nc3ccc(F)c(CC(=O)O)c3)C2)c1 [I-23]
50 to 500 nM	50 to 500 nM	COc1cncc(N2CCC[C@H](C(=O)Nc3ccc(F)c(CC(=O)O)c3)C2)c1 [I-24]
50 to 500 nM	500 to 5000 nM	N#Cc1cc(=O)n(CC(=O)O)cc1NC(=O)c1cccc(-c2cccnc2)c1 [I-25]
50 to 500 nM	500 to 5000 nM	N#Cc1cc(=O)n(CC(=O)O)cc1NC(=O)[C@H]1CCCN(c2cccnc2)C1 [I-26]
> 5000 nM	> 5000 nM	O=C(O)Cc1cc(NC(=O)[C@@H]2CCCN(c3cccnc3)C2)ccc1F [I-27]
500 to 5000 nM	> 5000 nM	O=C(O)Cn1cc(NC(=O)[C@H]2CCCN(c3cccnc3)CC2)ccc1=O [I-28]
500 to 5000 nM	> 5000 nM	O=C(O)Cn1cc(NC(=O)[C@@H]2CCCN(c3cccnc3)CC2)ccc1=O [I-29]
> 5000 nM	> 5000 nM	O=C(O)Cc1cc(NC(=O)[C@@H]2CCCN(c3cccnc3)C2)ccc1Cl [I-30]
> 5000 nM	> 5000 nM	Cn1cc(NC(=O)c2cccc(-c3cccnc3)c2)cc(C(=O)O)c1=O [I-31]
500 to 5000 nM	> 5000 nM	O=C(O)Cn1cc(NC(=O)[C@H]2CN(c3cccnc3)Cc3ccccc32)ccc1=O [I-32]
